Experimental data as given in publication PMC5046141, “Discovery of Isoquinolinoquinazolinones as a Novel Class of Potent PPARγ Antagonists with Anti-adipogenic Effects” (Scientific Reports, 2016).

Key:
PPARγ2-LBD = biological target: T1, PPARγ2-LBD (Mus musculus, UniProt P37238); assay: Surface plasmon resonance binding to immobilized PPARγ2-LBD; settings: for Kd / kon / koff: SPR, 25 °C, PBS; for Kd: read-out: KD (equilibrium dissociation constant); for kon: read-out: ka (association rate constant); for koff: read-out: kd (dissociation rate constant)
T1 construct: mouse PPARγ2 (residues 230–505) were expressed as N-terminal GST-tagged proteins; made in house; host or cells: E. coli BL21(DE3)
T1 sequence (P37238 230-505): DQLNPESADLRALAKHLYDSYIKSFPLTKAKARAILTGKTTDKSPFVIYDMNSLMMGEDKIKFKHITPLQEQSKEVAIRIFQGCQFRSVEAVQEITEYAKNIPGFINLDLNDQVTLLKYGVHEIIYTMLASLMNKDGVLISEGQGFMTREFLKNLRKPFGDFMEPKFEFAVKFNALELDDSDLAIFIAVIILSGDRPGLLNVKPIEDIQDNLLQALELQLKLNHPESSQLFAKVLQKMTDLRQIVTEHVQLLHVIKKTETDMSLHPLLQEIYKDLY
Description: PPARγ2 protein was immobilized on the sensor chip, and the response (in resonance unit; RU) as a result of binding was continuously recorded and presented graphically as a function of time[25]. The association rate (ka also known as on rate (kon)), dissociation rate (kd also known as off rate (koff)), and equilibrium dissociation constant (KD) were calculated using the Scrubber 2 program (Table 2).
The recombinant ligand-binding domains (LBDs) of mouse PPARγ2 (residues 230–505) were expressed as N-terminal GST-tagged proteins using the pGEX4T3 vector. pGXE4T3-mPPARγ2-LBD plasmid was transfected into BL21(DE3) competent cells and the cells were grown in LB medium containing 50 μg/mL ampicillin at 37 °C to an O. D. 600 of 0.6–0.8. The expression of PPARγ2-LBD was induced by the addition of 0.2 mM isopropyl β-D-thiogalactoside (IPTG). After treatment for 24 h at 22 °C, the cells were harvested and disrupted using sonication buffer [25 mM HEPES (pH 7.5), 150 mM NaCl, 1% NP-40, 0.25% sodium deoxycholate, 10% glycerol, 25 mM NaF, 1 mM EDTA, 1 mM Na3VO4, 250 μM PMSF, 10 μg/mL leupeptin, and 10 μg/ml aprotinin]. The supernatant was applied to glutathione-Sepharose beads for 24 h at 4 °C. The bound GST fusion proteins were washed with the sonication buffer and eluted by elution buffer [25 mM glutathione, 50 mM Tris pH 8.8, 200 mM NaCl].
Immobilization of the protein on the hydrophilic carboxymethylated dextran matrix of the sensor chip (Reichert) was carried out using a standard primary amine coupling reaction. Free carboxyl groups on the surface were modified by injecting a mixture of 0.1 M 1-ethyl-3-(3-dimethylaminopropyl) carbodiimide hydrochloride and 0.05 M N-hydroxysuccinimide at a flow rate of 20 μL/min to generate a reactive succinimide ester surface. Baseline equilibration was achieved by flushing the chip with PBS buffer for 1–2 h. All of the SPR data was collected at 25 °C with PBS as running buffer at a constant flow of 30 μL/min. All the sensorgrams were processed by using automatic correction for nonspecific bulk refractive index effects. All the kinetic analyses of the binding to PPARγ2-LBD were calculated using the Scrubber2 program (Bio-Logic Software).

[1] = Cytotoxicity in 3T3-L1 cells; type: cell-based; settings: mouse, read-out: cell viability
Description: Prior to testing the PPARγ antagonist potential of isoquinolinoquinazolinones, their cytotoxicity in 3T3-L1 cells (normal cells) was examined. […] These two compounds were then tested for PPARγ inhibitory activity.

Kd (PPARγ2-LBD) [µM]	kon (PPARγ2-LBD) [M⁻¹ s⁻¹]	koff (PPARγ2-LBD) [s⁻¹]	melting point [°C]	binding affinity relative to GW9662 (less than) (PPARγ2-LBD; ratio of KD values) [folds]	binding affinity relative to rosiglitazone (more than) (PPARγ2-LBD; ratio of KD values) [folds]	Structure (SMILES)	viability at 25 µM [1] [%]
3.91	15.1	5.9e-05	–	–	–	O=C(Nc1ccccc1)c1cc([N+](=O)[O-])ccc1Cl [GW9662, reference compound]	–
–	–	–	193.5 to 194.6	–	–	COc1cc2cc3n(c(=O)c2cc1OC)CNc1ccc(Cl)cc1-3 [Compound 8n, 2-Chloro-10,11-dimethoxy-5H-isoquinolino[2,3-c]quinazolin-8(6H)-one]	> 70
146	24	0.00351	228.7 to 230.5	37	4	COc1cc2cc3n(c(=O)c2cc1OC)CNc1cc(Cl)ccc1-3 [Compound 8o, 3-Chloro-10,11-dimethoxy-5H-isoquinolino[2,3-c]quinazolin-8(6H)-one]	> 70
